Measured values: US20090036448A1, “PYRIMIDINE DERIVATIVES AND METHODS OF TREATMENT RELATED TO THE USE THEREOF” (TAISHO PHARMECUTICAL CO., LTD., priority 2004, published 2009)

The molecules below were run against MCH receptor (Homo sapiens, UniProt Q99705) (assay: Receptor binding assay with Radiolabelled MCH Ligand). Conditions: class by percent of control at 10^-7 M or IC50.
Chain of MCH receptor (Q99705 whole entry): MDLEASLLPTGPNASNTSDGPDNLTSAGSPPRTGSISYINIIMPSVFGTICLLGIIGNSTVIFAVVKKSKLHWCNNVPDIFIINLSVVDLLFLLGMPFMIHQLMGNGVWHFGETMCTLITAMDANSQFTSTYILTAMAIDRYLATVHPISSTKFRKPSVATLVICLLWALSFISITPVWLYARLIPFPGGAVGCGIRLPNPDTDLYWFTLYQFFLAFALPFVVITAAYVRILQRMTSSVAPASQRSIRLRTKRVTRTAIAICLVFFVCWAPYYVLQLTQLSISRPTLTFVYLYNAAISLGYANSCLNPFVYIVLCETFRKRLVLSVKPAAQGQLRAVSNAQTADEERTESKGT
Parameters: expressed in transfected cells; host or cells: 293 cells (human kidney, ATCC), transient transfection; crude membranes
Summary of the method: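 Membranes from 293 cells transiently transfected with human MCH receptor competed test compounds against a radiolabelled MCH ligand in Tris-HCl pH 7.4 with MgCl2 and EDTA for 60–120 min at room temperature. Filtration and scintillation counting followed, with cold MCH defining nonspecific binding. IC50 came from logit-log plots of %B/B0, and Ki from the Cheng-Prusoff equation.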
With `Cc1nc(N[C@H]2CC[C@@H](NC(=O)c3ccc(-c4cnco4)cc3)CC2)cc(N(C)C)n1` [compound 347] the class was 3 (Class 3: The value of percent of control at 10^−7 M was more than 60% or the value of IC50 was more than 200 nM.). For `Cc1nc(N[C@H]2CC[C@@H](NC(=O)c3cn(S(=O)(=O)c4ccccc4)c4ccccc34)CC2)cc(N(C)C)n1` [compound 348], the class was 3 (Class 3: The value of percent of control at 10^−7 M was more than 60% or the value of IC50 was more than 200 nM.). In the case of `Cc1nc(N[C@H]2CC[C@@H](NC(=O)C(=O)c3ccccc3)CC2)cc(N(C)C)n1` [compound 349], the class is reported as 3 (Class 3: The value of percent of control at 10^−7 M was more than 60% or the value of IC50 was more than 200 nM.). For `Cc1cc(C)c(C(=O)C(=O)N[C@H]2CC[C@@H](Nc3cc(N(C)C)nc(C)n3)CC2)c(C)c1` [compound 350], the class was 3 (Class 3: The value of percent of control at 10^−7 M was more than 60% or the value of IC50 was more than 200 nM.). `Cc1nc(N[C@H]2CC[C@@H](NC(=O)C3C[C@@H](c4ccccc4)CC[C@H]3C(=O)c3ccccc3)CC2)cc(N(C)C)n1` (stereo partly drawn) [compound 351] was tested, and the class was 3 (Class 3: The value of percent of control at 10^−7 M was more than 60% or the value of IC50 was more than 200 nM.). In the case of `Cc1nc(N[C@H]2CC[C@@H](NC(=O)C=C3c4ccccc4-c4ccccc43)CC2)cc(N(C)C)n1` [compound 352], the class is reported as 3 (Class 3: The value of percent of control at 10^−7 M was more than 60% or the value of IC50 was more than 200 nM.). `Cc1nc(N[C@H]2CC[C@@H](NCc3ccc4c(c3)C(=O)c3ccccc3C4=O)CC2)cc(N(C)C)n1` [compound 353] was tested, and the class was 3 (Class 3: The value of percent of control at 10^−7 M was more than 60% or the value of IC50 was more than 200 nM.). With `Cc1nc(N[C@H]2CC[C@@H](NCc3ccccc3)CC2)cc(N(C)C)n1` [compound 354] the class was 3 (Class 3: The value of percent of control at 10^−7 M was more than 60% or the value of IC50 was more than 200 nM.). With `Cc1nc(N[C@H]2CC[C@@H](NCc3ccc(-c4ccccc4)cc3)CC2)cc(N(C)C)n1` [compound 355] the class was 3 (Class 3: The value of percent of control at 10^−7 M was more than 60% or the value of IC50 was more than 200 nM.). `Cc1nc(N[C@H]2CC[C@@H](NCc3ccc(C(C)(C)C)cc3)CC2)cc(N(C)C)n1` [compound 356] was tested, and the class was 3 (Class 3: The value of percent of control at 10^−7 M was more than 60% or the value of IC50 was more than 200 nM.). `Cc1nc(N[C@H]2CC[C@@H](NCc3cc4ccccc4s3)CC2)cc(N(C)C)n1` [compound 357] was tested, and the class was 3 (Class 3: The value of percent of control at 10^−7 M was more than 60% or the value of IC50 was more than 200 nM.). In the case of `Cc1nc(N[C@H]2CC[C@@H](NCc3ccc(Br)cc3)CC2)cc(N(C)C)n1` [compound 358], the class is reported as 3 (Class 3: The value of percent of control at 10^−7 M was more than 60% or the value of IC50 was more than 200 nM.). `Cc1nc(N[C@H]2CC[C@@H](NCCOCc3ccccc3)CC2)cc(N(C)C)n1` [compound 359] was tested, and the class was 3 (Class 3: The value of percent of control at 10^−7 M was more than 60% or the value of IC50 was more than 200 nM.). For `Cc1nc(N[C@H]2CC[C@@H](NCc3ccc(Cl)cc3)CC2)cc(N(C)C)n1` [compound 360], the class was 3 (Class 3: The value of percent of control at 10^−7 M was more than 60% or the value of IC50 was more than 200 nM.). In the case of `Cc1nc(N[C@H]2CC[C@@H](NCCOc3ccc(Cl)cc3)CC2)cc(N(C)C)n1` [compound 361], the class is reported as 3 (Class 3: The value of percent of control at 10^−7 M was more than 60% or the value of IC50 was more than 200 nM.). For `Cc1nc(N[C@H]2CC[C@@H](NCC3CC3)CC2)cc(N(C)C)n1` [compound 362], the class was 3 (Class 3: The value of percent of control at 10^−7 M was more than 60% or the value of IC50 was more than 200 nM.). For `Cc1nc(N[C@H]2CC[C@@H](NCC3CCCCC3)CC2)cc(N(C)C)n1` [compound 363], the class was 3 (Class 3: The value of percent of control at 10^−7 M was more than 60% or the value of IC50 was more than 200 nM.). With `Cc1nc(N[C@H]2CC[C@@H](NCCc3ccc(Cl)cc3)CC2)cc(N(C)C)n1` [compound 364] the class was 3 (Class 3: The value of percent of control at 10^−7 M was more than 60% or the value of IC50 was more than 200 nM.). With `Cc1nc(N[C@H]2CC[C@@H](NCC3(c4ccc(Cl)cc4)CCCC3)CC2)cc(N(C)C)n1` [compound 365] the class was 3 (Class 3: The value of percent of control at 10^−7 M was more than 60% or the value of IC50 was more than 200 nM.). In the case of `Cc1nc(N[C@H]2CC[C@@H](NCc3c(-c4c(F)cccc4Cl)noc3C)CC2)cc(N(C)C)n1` [compound 366], the class is reported as 3 (Class 3: The value of percent of control at 10^−7 M was more than 60% or the value of IC50 was more than 200 nM.). With `Cc1nc(N[C@H]2CC[C@@H](NCc3scc(S(=O)(=O)c4ccc(Cl)cc4)c3C)CC2)cc(N(C)C)n1` [compound 367] the class was 3 (Class 3: The value of percent of control at 10^−7 M was more than 60% or the value of IC50 was more than 200 nM.). For `Cc1nc(N[C@H]2CC[C@@H](NCc3ccc(N(C)C)cc3)CC2)cc(N(C)C)n1` [compound 368], the class was 3 (Class 3: The value of percent of control at 10^−7 M was more than 60% or the value of IC50 was more than 200 nM.). With `Cc1nc(N[C@H]2CC[C@@H](NCc3ccc(F)c(F)c3)CC2)cc(N(C)C)n1` [compound 369] the class was 3 (Class 3: The value of percent of control at 10^−7 M was more than 60% or the value of IC50 was more than 200 nM.). For `COc1ccc(CN[C@H]2CC[C@@H](Nc3cc(N(C)C)nc(C)n3)CC2)cc1OC` [compound 370], the class was 3 (Class 3: The value of percent of control at 10^−7 M was more than 60% or the value of IC50 was more than 200 nM.). For `CCOc1ccc(CN[C@H]2CC[C@@H](Nc3cc(N(C)C)nc(C)n3)CC2)cc1` [compound 371], the class was 3 (Class 3: The value of percent of control at 10^−7 M was more than 60% or the value of IC50 was more than 200 nM.). With `Cc1nc(N[C@H]2CC[C@@H](NCc3ccc(F)cc3)CC2)cc(N(C)C)n1` [compound 372] the class was 3 (Class 3: The value of percent of control at 10^−7 M was more than 60% or the value of IC50 was more than 200 nM.). With `Cc1nc(N[C@H]2CC[C@@H](NCc3ccco3)CC2)cc(N(C)C)n1` [compound 373] the class was 3 (Class 3: The value of percent of control at 10^−7 M was more than 60% or the value of IC50 was more than 200 nM.). For `Cc1nc(N[C@H]2CC[C@@H](NCc3ccno3)CC2)cc(N(C)C)n1` [compound 374], the class was 3 (Class 3: The value of percent of control at 10^−7 M was more than 60% or the value of IC50 was more than 200 nM.). `Cc1nc(N[C@H]2CC[C@@H](NCc3ccccc3I)CC2)cc(N(C)C)n1` [compound 375] was tested, and the class was 3 (Class 3: The value of percent of control at 10^−7 M was more than 60% or the value of IC50 was more than 200 nM.). In the case of `Cc1nc(N[C@H]2CC[C@@H](NCc3nn(-c4ccccc4)nc3C)CC2)cc(N(C)C)n1` [compound 376], the class is reported as 3 (Class 3: The value of percent of control at 10^−7 M was more than 60% or the value of IC50 was more than 200 nM.). `COc1ccc(Oc2ccc([N+](=O)[O-])cc2CN[C@H]2CC[C@@H](Nc3cc(N(C)C)nc(C)n3)CC2)cc1` [compound 377] was tested, and the class was 3 (Class 3: The value of percent of control at 10^−7 M was more than 60% or the value of IC50 was more than 200 nM.). `Cc1nc(N[C@H]2CC[C@@H](NCc3ccc4ccccc4c3)CC2)cc(N(C)C)n1` [compound 378] was tested, and the class was 3 (Class 3: The value of percent of control at 10^−7 M was more than 60% or the value of IC50 was more than 200 nM.). `Cc1nc(N[C@H]2CC[C@@H](NCc3cccc([N+](=O)[O-])c3)CC2)cc(N(C)C)n1` [compound 379] was tested, and the class was 3 (Class 3: The value of percent of control at 10^−7 M was more than 60% or the value of IC50 was more than 200 nM.). With `Cc1nc(N[C@H]2CC[C@@H](NCc3cnn(-c4ccc([N+](=O)[O-])cc4)c3C(F)(F)F)CC2)cc(N(C)C)n1` [compound 380] the class was 3 (Class 3: The value of percent of control at 10^−7 M was more than 60% or the value of IC50 was more than 200 nM.). In the case of `Cc1nc(N[C@H]2CC[C@@H](NCCOc3ccccc3)CC2)cc(N(C)C)n1` [compound 381], the class is reported as 3 (Class 3: The value of percent of control at 10^−7 M was more than 60% or the value of IC50 was more than 200 nM.). With `Cc1nc(N[C@H]2CC[C@@H](NCCc3ccccc3)CC2)cc(N(C)C)n1` [compound 382] the class was 3 (Class 3: The value of percent of control at 10^−7 M was more than 60% or the value of IC50 was more than 200 nM.). With `Cc1nc(N[C@H]2CC[C@@H](NCC3C[C@H]3c3ccccc3)CC2)cc(N(C)C)n1` (stereo partly drawn) [compound 383] the class was 3 (Class 3: The value of percent of control at 10^−7 M was more than 60% or the value of IC50 was more than 200 nM.). In the case of `Cc1nc(N[C@H]2CC[C@@H](NCc3cnn(-c4ccccc4)c3C(F)(F)F)CC2)cc(N(C)C)n1` [compound 384], the class is reported as 3 (Class 3: The value of percent of control at 10^−7 M was more than 60% or the value of IC50 was more than 200 nM.). `Cc1nc(N[C@H]2CC[C@@H](NCCOc3ccccc3[N+](=O)[O-])CC2)cc(N(C)C)n1` [compound 385] was tested, and the class was 3 (Class 3: The value of percent of control at 10^−7 M was more than 60% or the value of IC50 was more than 200 nM.). With `Cc1nc(N[C@H]2CC[C@@H](NCc3cccc(C(F)(F)F)c3)CC2)cc(N(C)C)n1` [compound 386] the class was 3 (Class 3: The value of percent of control at 10^−7 M was more than 60% or the value of IC50 was more than 200 nM.). With `Cc1ccc(CN[C@H]2CC[C@@H](Nc3cc(N(C)C)nc(C)n3)CC2)cc1` [compound 387] the class was 3 (Class 3: The value of percent of control at 10^−7 M was more than 60% or the value of IC50 was more than 200 nM.). In the case of `Cc1nc(N[C@H]2CC[C@@H](NCc3cccs3)CC2)cc(N(C)C)n1` [compound 388], the class is reported as 3 (Class 3: The value of percent of control at 10^−7 M was more than 60% or the value of IC50 was more than 200 nM.).
